{
  "source": "patent US4794116A",
  "about": "“Anti-allergic esters, acetal ethers, thioethers and nitrogen substituted derivatives of bicyclic compounds” (Schering Corporation, priority 1986, dated 1988)",
  "key": {"[1]": {"test_system": "anaphylactic bronchospasm", "test": "inhibition of anaphylactic bronchospasm in sensitized guinea pigs having antigen induced broncho-constriction", "type": "in vivo, guinea pig (male Hartley)", "details": "for % Inhibition After 8 hr (peak increase in intratracheal pressure): 8 hours before ovalbumin challenge", "method": "The anti-allergy method of this invention is identified by tests which measure a compound's inhibition of anaphylactic bronchospam in sensitized guinea pigs having antigen induced broncho-constriction.\nIn one such test procedure, male Hartley guinea pigs (250-300 g) are sensitized with 5 mg ovalbumin injected i.p. and 5 mg injected s.c. in 1 ml saline on day 1 and 5 mg ovalbumin injected i.p. on day 4. The sensitized animals are used 3-4 weeks later at which time they weigh 450-500 g.\nThe sensitized guinea pigs are fasted overnight and the following morning are anesthetized with 0.9 ml/kg i.p. of dialurethane (0.1 g/m diallybarbituric acid, 0.4 g/ml ethylurea and 0.4 g/ml urethane). The trachea are cannulated and the animals are ventilated by a Harvard rodent respirator at 50 strokes/minute with a stroke volume of 5 ml. A side arm to the tracheal cannula is connected to a Harvard pressure transducer to obtain a continuous measure of intratracheal pressure which is recorded on a Harvard polygraph. The jugular vein is cannulated for the i.v. administration of substances. The animals are challenged with antigen (0.5% ovalbumin) as an aerosol generated from a DeVilbiss Model 65 ultrasonic nebulizer and delivered through the tracheal cannula for 30 seconds. Bronchoconstriction is measured as the peak increase in intratracheal pressure occuring within 5 minutes after antigen challenge.\nThe sensitized guinea pigs are injected i.v. with 1 mg/kg propranolol, 5 mg/kg indomethacin and 2 mg/kg mepyramine given together in a volume of 1 ml/kg. Fifteen minutes later the animals are challenged with nebulized ovalbumin. Test compounds are administered orally 2 or 8 hours before challenge with ovalbumin. Suppression of anaphylactic bronchospasm is expressed as a percent inhibition of the peak increase in intratracheal pressure by comparison to a vehicle-treated control group.\n*This measurement was made in a 21/2 day multipledosing regimen version o"}, "[2]": {"test_system": "paw edema", "test": "Reversed Passive Arthus Response (RPAR) Paw", "type": "in vivo, rat (male Lewis)", "details": "oral dose of 25 mg/kg; for inhibited the paw edema at 2 hours: 2 hours post-challenge; for inhibited the paw edema at 4 hours: 4 hours post-challenge", "method": "Reversed Passive Arthus Response (RPAR) PAW Animals, Materials and Methods\nMale Lewis inbred albino rats weighing 180-200 grams obtained from Charles River Breeding Laboratories are used in these experiments. The rats are housed 3 animals/cage and food and water are allowed ad libitum. The animals are numbered 1-3 in each cage and color marked for identification purposes.\nCL Drug and Reagent Preparation\nAll reagents and drugs are prepared just prior to the study. Crystallized and lyophilized bovine serum albumin (BSA), available from Sigma Chemical Company, is solubilized without shaking in cold, sterile, pyrogen-free saline (10 mg/ml). Lyophilized anti-bovine serum albumin (IgG fraction), obtained from Cappel Laboratories, is suspended in sterile distilled water and diluted with cold, pyrogen-free saline (PFS) just prior to use. The final concentration of anti-bovine serum albumin is 0.5 mg/ml of PFS. Both BSA and anti-BSA solutions are iced during use. Drugs are suspended or solubilized in an aqueous solution of methyl cellulose (MC) with an homogenizer just prior to administration.\nDrug Administration and Induction of Inflammation\nGroups of animals (6/group) are dosed with drug in MC by gavage once daily for 3 days. The last dose is administered one hour prior to sensitization with BSA. Controls are given MC alone and a drug-standard is usually included in each assay for verification purposes. Drugs are prepared and diluted so as to provide a dose for a 200 gram animal which is equivalent to the mg/kg dose for each experiment. Thus each rat receives an oral dose in a volume of approximately 2.0 cc. One hour after the last dose the animals are lightly anesthetized with ether and \"sensitized\" by injection of 0.2 ml of PFS containing 1.0 mg of BSA into the penile vein. One hour later, the animals are \"challenged\" in the right rear paw with subplantar injections of 0.2 ml of PFS containing 0.1 mg of anti-BSA. Immediately after the subplantar injection, the right paw is dipped (up to the lateral maleolus) into the mercury well of a plethysmograph. The volume of mercury displaced is converted to weight and recorded. This value is considered to be the control reading for the animal. Paw volumes are subsequently recorded with a plethysmograph during the development of the inflammation at 2 and 4 hours post-challenge.\nResults are expressed by the change in paw volume (Δpaw volume) from the control reading for each animal to that recorded 2 and 4 hours post-challenge. All drug treated groups are compared to the MC control for significant differences with an analysis of variance. Differences from control in drug-treated groups are expressed as percent change from control. […]"}, "[3]": {"details": "5 mg/kg p.o., 2 hours before ovalbumin challenge"}},
  "data": [
    {"smiles": "Cc1ccc(C(=O)Oc2c(N3CCCC3)c(=O)n(-c3ccccc3)c3ncccc23)cc1", "note": "[Example 1, 4-(4-methylbenzoyloxy)-1-phenyl-3(1-pyrrolidinyl)-1,8-naphthyridin-2(1H)-one]", "values": [
      {"measurement": "% Inhibition After 2 hr (peak increase in intratracheal pressure)", "setting": "[1]; [3]", "result": 30, "unit": "%"},
      {"measurement": "% Inhibition After 8 hr (peak increase in intratracheal pressure)", "setting": "[1]; 5 mg/kg p.o.", "result": 0, "unit": "%"}
    ]},
    {"smiles": "CC(C)(C)C(=O)Oc1c(N2CCCC2)c(=O)n(-c2ccccc2)c2ncccc12", "note": "[Example 3, 4-(2,2-dimethylpropionyloxy)-1-phenyl-3-(1-pyrrolidinyl)-1,8-naphthyridin-2(1H)-one]", "values": [
      {"measurement": "% Inhibition After 2 hr (peak increase in intratracheal pressure)", "setting": "[1]; [3]", "result": 48, "unit": "%"},
      {"measurement": "% Inhibition After 8 hr (peak increase in intratracheal pressure)", "setting": "[1]; 5 mg/kg p.o.", "result": 49, "unit": "%"},
      {"measurement": "inhibited the paw edema at 2 hours", "setting": "[2]", "result": 28, "unit": "%"},
      {"measurement": "inhibited the paw edema at 4 hours", "setting": "[2]", "result": 5, "unit": "%"}
    ]},
    {"smiles": "CC(=O)Oc1c(N2CCCC2)c(=O)n(-c2ccccc2)c2ncccc12", "note": "[Example 2, 4-acetyloxy-1-phenyl-3-(1-pyrrolidinyl)-1,8-naphthyridin-2(1H)-one]", "values": [
      {"measurement": "% Inhibition After 2 hr (peak increase in intratracheal pressure)", "setting": "[1]; 10 mg/kg p.o., 2 1/2 day multiple-dosing regimen version of the assay", "result": 87, "unit": "%"}
    ]},
    {"smiles": "CCN(CC)C(=O)Oc1c(N2CCCC2)c(=O)n(-c2ccccc2)c2ncccc12", "note": "[Example 4, 4-(N,N-diethylcarbamoyloxy)-1-phenyl-3-(1-pyrrolidinyl)-1,8-naphthyridin-2(1H)-one]", "values": [
      {"measurement": "% Inhibition After 2 hr (peak increase in intratracheal pressure)", "setting": "[1]; [3]", "result": 48, "unit": "%"},
      {"measurement": "% Inhibition After 8 hr (peak increase in intratracheal pressure)", "setting": "[1]; 5 mg/kg p.o.", "result": 32, "unit": "%"},
      {"measurement": "inhibited the paw edema at 2 hours", "setting": "[2]", "result": 54, "unit": "%"},
      {"measurement": "inhibited the paw edema at 4 hours", "setting": "[2]", "result": 17, "unit": "%"}
    ]}
  ]
}
